Like-named read-outs stand apart in the source and are kept apart here.
Columns and labels:
[1] = in vivo; cited from earlier work
[2] = cited from earlier work
[3] = Pharmacokinetic profile following dry powder insufflation; format: in vivo, guinea pig; details: anaesthetized guinea pigs, dry powder insufflation of oxybutynin
[4] = test system: receptors in the salivary glands; details: cited from earlier work
[5] = cited from earlier work; remark: listed apart in the source
[6] = test system: methacholine induced bronchoconstriction; assay: Methacholine induced bronchoconstriction after pulmonary (i.t.) dry powder delivery; format: in vivo, guinea pig
Excerpt: Each bar represents the mean value and the vertical lines show s.e. mean.
(§1) Each point represents the mean value and the vertical bars show s.e. mean.

[7] = test system: mean arterial blood pressure and heart rate; assay: Mean arterial blood pressure and heart rate after pulmonary delivery; format: in vivo, guinea pig
Excerpt: as §1

## CC1(C)O[C@@H]2C[C@H]3[C@@H]4CCC5=CC(=O)C=C[C@]5(C)[C@@]4(F)[C@@H](O)C[C@]3(C)[C@]2(C(=O)CO)O1 [triamcinolone acetonide]
[1]
  Mean absorption time in the lungs: 2.9 h

## CCC(=O)O[C@]1(C(=O)SCF)[C@H](C)C[C@H]2[C@@H]3C[C@H](F)C4=CC(=O)C=C[C@]4(C)[C@@]3(F)[C@@H](O)C[C@@]21C [fluticasone propionate]
[1]
  Mean absorption time in the lungs: 5 to 7 h

## CCNCC#CCOC(=O)C(O)(c1ccccc1)C1CCCCC1 (centres unmarked) [DEO, N-desethyloxybutynin]
[2]; oral therapy
  Levels of DEO: 10 to 40 ng/mL
[2]; oxybutynin ER, oral
  DEO circulating concentration relative to parent compound: approximately 4 times
[2]; oxybutynin IR, oral
  DEO circulating concentration relative to parent compound: approximately 10 times
[2]; transdermal therapy
  Levels of DEO: ~3 ng/mL
[3]
  Systemic levels of DEO resulting from pulmonary delivery: below the LOQ of the detection method
[4]
  Affinity and binding duration at receptors in the salivary glands, compared with oxybutynin: greater affinity and binding duration

## O=C(O)c1ccc2ccccc2c1O [xinafoic acid]
[5]
  pKa: 2.7

## CCN(CC)CC#CCOC(=O)C(O)(c1ccccc1)C1CCCCC1 (racemic) [oxybutynin, 4-diethylaminobut-2-butynyl phenylcyclohexyl-glycolate]
[2]; oral
  Oral half life: 2.5 h
[6]
  Bronchoprotective effect in guinea pig model of bronchoconstriction: significantly bronchoprotective effect from 0.25 to 24 hours
[7]; guinea pig model of bronchoconstriction
  Effect on arterial pressure and heart rate: without a prolonged significant effect on arterial pressure and heart rate
[7]; oxybutynin xinafoate, pulmonary, first 6 hours, anaesthetized guinea pigs
  Influence on cardiovascular conditions, compared with Tiotropium: did not have as significant an influence on cardiovascular conditions
[5]
  pKa: 8.24

— US9119777B2 (MICRODOSE THERAPEUTX, INC., priority 2008, dated 2015)
